According to ChEMBL document CHEMBL3045468, “I2 catalyzed FriedelCrafts alkylation reaction of substituted anilines with ninhydrin: formation of novel products and their antimicrobial evaluation” (2013):
≈ marks a conversion by molar mass, not a printed value. Calls of active or inactive are those of the source. The calls are words filed in the database; no cut-off is given here.

Experiments:
Pseudomonas aeruginosa [1] = experiment: Antibacterial activity against Pseudomonas aeruginosa 71 clinical isolate assessed as growth inhibition at 1 mg/ml after 24 hr by NCCLS agar diffusion method; assay type: functional
Bacillus pumilus = experiment: Antibacterial activity against Bacillus pumilus 11778 clinical isolate assessed as growth inhibition at 1 mg/ml after 24 hr by NCCLS agar diffusion method; assay type: functional; details: for zone of inhibition at 1000 µg/mL: Bacillus pumilus, 11778, 24 h, read-out: DIZ
Escherichia coli [2] = experiment: Antibacterial activity against Escherichia coli 319 clinical isolate assessed as growth inhibition at 1 mg/ml after 24 hr by NCCLS agar diffusion method; assay type: functional; details: for zone of inhibition at 1000 µg/mL: Escherichia coli, 319, 24 h, read-out: DIZ
Micrococcus luteus = experiment: Antibacterial activity against Micrococcus luteus ATCC 9341 clinical isolate assessed as growth inhibition at 1 mg/ml after 24 hr by NCCLS agar diffusion method; assay type: functional; details: for zone of inhibition at 1000 µg/mL: ATCC 9341, 24 h, read-out: DIZ
Shigella dysenteriae [3] = experiment: Antibacterial activity against Shigella dysenteriae 15 clinical isolate assessed as growth inhibition at 1 mg/ml after 24 hr by NCCLS agar diffusion method; assay type: functional; details: for zone of inhibition at 1000 µg/mL: Shigella dysenteriae, 15, 24 h, read-out: DIZ
Staphylococcus aureus [4] = experiment: Antibacterial activity against Staphylococcus aureus 29737 clinical isolate assessed as growth inhibition at 1 mg/ml after 24 hr by NCCLS agar diffusion method; assay type: functional; details: for zone of inhibition at 1000 µg/mL: Staphylococcus aureus, 29737, 24 h, read-out: DIZ
Cryptococcus neoformans [5] = experiment: Antifungal activity against Cryptococcus neoformans clinical isolate assessed as growth inhibition at 1 mg/ml after 96 hr by NCCLS agar diffusion method; assay type: functional; details: read-out: DIZ
Candida tropicalis [6] = experiment: Antifungal activity against Candida tropicalis clinical isolate assessed as growth inhibition at 1 mg/ml after 96 hr by NCCLS agar diffusion method; assay type: functional; details: read-out: DIZ
Candida albicans [7] = experiment: Antifungal activity against Candida albicans clinical isolate assessed as growth inhibition at 1 mg/ml after 96 hr by NCCLS agar diffusion method; assay type: functional; details: read-out: DIZ
Aspergillus niger [8] = experiment: Antifungal activity against Aspergillus niger clinical isolate assessed as growth inhibition at 1 mg/ml after 96 hr by NCCLS agar diffusion method; assay type: functional; details: read-out: DIZ
Cryptococcus neoformans [9] = experiment: Antifungal activity against Cryptococcus neoformans clinical isolate assessed as growth inhibition after 96 hr by agar dilution method; assay type: functional
Candida tropicalis [10] = experiment: Antifungal activity against Candida tropicalis clinical isolate assessed as growth inhibition after 96 hr by agar dilution method; assay type: functional
Candida albicans [11] = experiment: Antifungal activity against Candida albicans clinical isolate assessed as growth inhibition after 96 hr by agar dilution method; assay type: functional
Aspergillus niger [12] = experiment: Antifungal activity against Aspergillus niger clinical isolate assessed as growth inhibition after 96 hr by agar dilution method; assay type: functional
Klebsiella pneumoniae [13] = experiment: Antibacterial activity against Klebsiella pneumoniae J/I/4 clinical isolate assessed as growth inhibition at 1 mg/ml after 24 hr by NCCLS agar diffusion method; assay type: functional; details: for zone of inhibition at 1000 µg/mL: J/I/4, 24 h, read-out: DIZ
Vibrio cholerae [14] = experiment: Antibacterial activity against Vibrio cholerae 759 clinical isolate assessed as growth inhibition at 1 mg/ml after 24 hr by NCCLS agar diffusion method; assay type: functional; details: for zone of inhibition at 1000 µg/mL: Vibrio cholerae, 759, 24 h, read-out: DIZ
Klebsiella pneumoniae [15] = experiment: Antibacterial activity against Klebsiella pneumoniae J/I/4 clinical isolate assessed as growth inhibition after 24 hr by agar dilution method; assay type: functional
Vibrio cholerae [16] = experiment: Antibacterial activity against Vibrio cholerae 759 clinical isolate assessed as growth inhibition after 24 hr by agar dilution method; assay type: functional
Pseudomonas aeruginosa [17] = experiment: Antibacterial activity against Pseudomonas aeruginosa 71 clinical isolate assessed as growth inhibition after 24 hr by agar dilution method; assay type: functional
Escherichia coli [18] = experiment: Antibacterial activity against Escherichia coli 319 clinical isolate assessed as growth inhibition after 24 hr by agar dilution method; assay type: functional
Shigella dysenteriae [19] = experiment: Antibacterial activity against Shigella dysenteriae 15 clinical isolate assessed as growth inhibition after 24 hr by agar dilution method; assay type: functional
Staphylococcus aureus [20] = experiment: Antibacterial activity against Staphylococcus aureus 29737 clinical isolate assessed as growth inhibition after 24 hr by agar dilution method; assay type: functional
Vibrio cholerae [21] = experiment: Bactericidal activity against Vibrio cholerae 759 clinical isolate assessed as reduction of viable CFU count at MIC measured up to 48 hr relative to untreated control; assay type: functional, organism-based
Escherichia coli [22] = experiment: Bactericidal activity against Escherichia coli 319 clinical isolate assessed as reduction of viable CFU count at MIC measured up to 48 hr relative to untreated control; assay type: functional, organism-based

Compound | growth inhibition (GI) (Pseudomonas aeruginosa [1]) | zone of inhibition at 1000 µg/mL (Bacillus pumilus) [mm] | zone of inhibition at 1000 µg/mL (Escherichia coli [2]) [mm] | growth inhibition (GI) (Micrococcus luteus) | growth inhibition (GI) (Shigella dysenteriae [3]) | growth inhibition (GI) (Staphylococcus aureus [4]) | zone of inhibition at 1000 µg/mL (Klebsiella pneumoniae [13]) [mm] | growth inhibition (GI) (Bacillus pumilus) | growth inhibition (GI) (Escherichia coli [2]) | zone of inhibition at 1000 µg/mL (Micrococcus luteus) [mm] | zone of inhibition at 1000 µg/mL (Staphylococcus aureus [4]) [mm] | growth inhibition (GI) (Klebsiella pneumoniae [13]) | growth inhibition (GI) (Vibrio cholerae [14]) | also measured
Nc1ccc(C2(c3ccc(N)c(Br)c3)C(=O)c3ccccc3C2=O)cc1Br | inactive | 8 | 8 | inactive | inactive | inactive | 6 |  |  |  |  |  |  | zone of inhibition at 1000 µg/mL (Cryptococcus neoformans [5]): 8 mm; zone of inhibition at 1000 µg/mL (Candida tropicalis [6]): 8 mm; zone of inhibition at 1000 µg/mL (Candida albicans [7]): 10 mm; zone of inhibition at 1000 µg/mL (Aspergillus niger [8]): 12 mm; MIC (Cryptococcus neoformans [9]): 1500 µg/mL (≈ 3.09 mM); MIC (Candida tropicalis [10]): 2000 µg/mL (≈ 4.11 mM); MIC (Candida albicans [11]): 2500 µg/mL (≈ 5.14 mM); MIC (Aspergillus niger [12]): 1000 µg/mL (≈ 2.06 mM); zone of inhibition at 1000 µg/mL (Vibrio cholerae [14]): 9 mm
GENTAMICIN |  |  |  |  |  |  |  |  |  |  |  |  |  | MIC (Klebsiella pneumoniae [15]): 250 µg/mL; MIC (Vibrio cholerae [16]): 2000 µg/mL; MIC (Pseudomonas aeruginosa [17]): 4000 µg/mL; MIC (Escherichia coli [18]): 500 µg/mL; MIC (Shigella dysenteriae [19]): 2000 µg/mL; MIC (Staphylococcus aureus [20]): 1000 µg/mL
COc1cc(N)ccc1C1(O)C(=O)c2ccccc2C1=O | inactive |  |  |  | inactive |  |  | inactive | inactive | 8 | 7 | inactive | inactive | 
CN(C)c1ccc(C2(O)C(=O)c3ccccc3C2=O)cc1 | inactive |  | 7 | inactive | inactive |  |  | inactive |  |  | 7 | inactive | inactive | 
Nc1ccc(C2(O)C(=O)c3ccccc3C2=O)c2ncccc12 | inactive |  | 8 | inactive | inactive | inactive |  | inactive |  |  |  | inactive | inactive | 
CCN(CC)c1ccc(C2(O)C(=O)c3ccccc3C2=O)cc1 | inactive | 7 | 9 | inactive |  | inactive |  |  |  |  |  | inactive | inactive | zone of inhibition at 1000 µg/mL (Shigella dysenteriae [3]): 7 mm
Cc1cc(C2(c3cc(C)c(N)cc3F)C(=O)c3ccccc3C2=O)c(F)cc1N | inactive | 7 | 7 | inactive | inactive | inactive | 7 |  |  |  |  |  | inactive | 
COc1cc(C2(Nc3cc(Cl)ccc3OC)C(=O)c3ccccc3C2=O)c(Cl)cc1N | inactive |  |  |  | inactive | inactive |  | inactive | inactive | 9 |  | inactive |  | MIC (Vibrio cholerae [16]; Vibrio cholerae, 759, 24 h): 32000 µg/mL (≈ 70 mM); Activity (Vibrio cholerae [21]): Active; Activity (Escherichia coli [22]): Active; zone of inhibition at 1000 µg/mL (Vibrio cholerae [14]): 8 mm
Nc1ccc(C2(c3ccc(N)c(I)c3)C(=O)c3ccccc3C2=O)cc1I |  |  |  |  | inactive |  |  | inactive | inactive | 8 | 8 | inactive | inactive | zone of inhibition at 1000 µg/mL (Pseudomonas aeruginosa [1]; Pseudomonas aeruginosa, 71, 24 h, read-out: DIZ): 8 mm
Nc1ccc(C2(c3ccc(N)c(Cl)c3)C(=O)c3ccccc3C2=O)cc1Cl | inactive |  | 8 | inactive |  | inactive | 8 | inactive |  |  |  |  | inactive | zone of inhibition at 1000 µg/mL (Shigella dysenteriae [3]): 6 mm; MIC (Shigella dysenteriae [19]; Shigella dysenteriae, 15, 24 h): 32000 µg/mL (≈ 80.6 mM)
